This assay addresses T1, HEK-Blue-hTLR9 cells (Homo sapiens, UniProt Q9NR96).
T1 construct: expressed in transfected cells; host or cells: HEK-Blue-hTLR9 cells (HEK293-derived reporter line)
T1 sequence (Q9NR96 26-1032): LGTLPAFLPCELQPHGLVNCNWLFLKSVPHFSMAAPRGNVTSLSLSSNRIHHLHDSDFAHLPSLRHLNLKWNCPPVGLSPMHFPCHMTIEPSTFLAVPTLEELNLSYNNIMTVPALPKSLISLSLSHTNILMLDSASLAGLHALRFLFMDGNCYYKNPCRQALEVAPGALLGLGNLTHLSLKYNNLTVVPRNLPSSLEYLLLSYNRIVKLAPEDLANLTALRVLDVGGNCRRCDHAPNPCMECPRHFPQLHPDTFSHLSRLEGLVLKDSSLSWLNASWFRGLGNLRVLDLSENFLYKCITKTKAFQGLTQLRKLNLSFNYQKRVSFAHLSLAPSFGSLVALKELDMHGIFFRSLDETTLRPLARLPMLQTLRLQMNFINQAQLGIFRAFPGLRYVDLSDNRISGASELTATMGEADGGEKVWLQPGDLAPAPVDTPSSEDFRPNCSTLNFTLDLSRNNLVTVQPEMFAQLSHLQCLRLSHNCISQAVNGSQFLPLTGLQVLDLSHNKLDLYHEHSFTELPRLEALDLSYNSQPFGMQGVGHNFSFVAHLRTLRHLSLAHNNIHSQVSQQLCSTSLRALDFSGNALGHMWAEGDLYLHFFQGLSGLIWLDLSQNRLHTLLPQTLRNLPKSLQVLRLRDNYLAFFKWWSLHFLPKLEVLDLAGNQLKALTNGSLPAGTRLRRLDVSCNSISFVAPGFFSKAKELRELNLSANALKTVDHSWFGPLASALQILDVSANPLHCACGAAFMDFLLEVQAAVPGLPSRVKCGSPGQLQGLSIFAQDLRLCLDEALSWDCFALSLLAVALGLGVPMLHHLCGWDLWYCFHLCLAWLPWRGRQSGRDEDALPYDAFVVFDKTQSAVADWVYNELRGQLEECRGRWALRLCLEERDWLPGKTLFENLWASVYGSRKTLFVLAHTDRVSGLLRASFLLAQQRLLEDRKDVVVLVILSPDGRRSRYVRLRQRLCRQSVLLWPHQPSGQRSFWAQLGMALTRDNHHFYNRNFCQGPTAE
The assay can be described thus: HEK-Blue-hTLR9 cell inhibition assay. In kind it is cell-based. Conditions: ODN2006 1 µM, 16 h, OD 620 nm, read-out: TLR9 IC50. As to the method: HEK-Blue-hTLR7/8/9 cell inhibition assay
1. HEK-Blue-hTLR7/8 cells (1 × 10^4 cells/well) and HEK-Blue-hTLR9 cells (1.5 × 10^4 cells/well) were seeded in a 384-well cell culture plate, with a volume of 30 µL per well. The plate was incubated at 37°C in a 5% CO2 incubator for 4 h. 2. The compound was prepared with DMSO and diluted in DMEM medium to 10 concentrations (1:3 dilution), with final concentrations of 10000, 3333.3, 1111.1, 370.4, 123.5, 41.2, 13.7, 4.6, 1.5, and 0.5 nM; R848 was prepared with DMSO and diluted in DMEM medium, with final concentrations of 0.8 µM (HEK-Blue-hTLR7) and 3 µM (HEK-Blue-hTLR8); ODN2006 was prepared with endotoxin-free water and diluted in DMEM medium, with a final concentration of 1 µM. 3. Cells treated with DMSO were used as the blank control group, while cells treated solely with Resiquimod (R848) were used as the positive control group for HEK-Blue-hTLR7/8, and cells treated solely with ODN2006 were used as the positive control group for HEK-Blue-hTLR9. Cells treated with the test compound together with R848 or ODN2006 were used as the test group. Two parallel wells were set for each group and were placed at 37°C in a 5% CO2 incubator for incubation. 4. After being incubated for 4 h, the 384-well plate of HEK-Blue-hTLR7/8 was taken out from the incubator, and R848 alone or both R848 and the diluted compound were separately added into each well. The plate was placed at 37°C in a 5% CO2 incubator for incubation for 16 h; the 384-well plate of HEK-Blue-hTLR9 was taken out from the incubator, and ODN2006 alone or both ODN2006 and the diluted compound were added separately to each well. The plate was incubated at 37°C in a 5% CO2 incubator for 16 h. 5. After being incubated for 16 h, the 384-well plate was removed from the incubator and centrifuged at 1000 rpm for 1 minute. The optical density value of each well at 620 nm was measured using a multifunctional microplate reader. 6. The cell inhibition rate was calculated as (1-(OD620 test group-OD620 blank group)/(OD620 positive group-OD620 blank group))×100%, and the half maximal inhibitory concentration (IC50) was calculated through curve fitting. Table 1: Activity of the compounds of the present disclosure in HEK-Blue-hTLR7/8/9 cellular assays

Where only a bound is given, the exact number is not on record here.

A word on the IC50: it is the midpoint of a concentration-inhibition curve. In the case of `CN1CCN(c2nnc([C@]34CN(c5ccc(C#N)c6ncccc56)C[C@@]3(C(F)(F)F)C4)o2)CC1` [Compound 1, 5-((1S,5R)-1-(5-(4-methylpiperazin-1-yl)-1,3,4-oxadiazol-2-yl)-5-(trifluoromethyl)-3-azabicyclo[3.1.0]hexan-3-yl)quinoline-8-carbonitrile], the concentration for half-maximal inhibition (IC50) was more than 10 µM.

`Cc1cc(N2CC3(c4nnc(C5CCN(C)CC5)o4)C[C@]3(C(F)(F)F)C2)c2cnn(C)c2n1` (stereo partly drawn) [Compound 2, 2-((5R)-3-(1,6-dimethyl-1H-pyrazolo[3,4-b]pyridin-4-yl)-5-(trifluoromethyl)-3-azabicyclo[3.1.0]hexan-1-yl)-5-(1-methylpiperidin-4-yl)-1,3,4-oxadiazole]: the IC50 was more than 10 µM.

In the case of `FC(F)(F)c1ccc(N2C[C@]3(c4nnc(C5(F)CCNCC5)o4)C[C@]3(C(F)(F)F)C2)c2cccnc12` [Compound 3, 2-(4-fluoropiperidin-4-yl)-5-((1S,5R)-5-(trifluoromethyl)-3-(8-(trifluoromethyl)quinolin-5-yl)-3-azabicyclo[3.1.0]hexan-1-yl)-1,3,4-oxadiazole], the half-maximal inhibitory concentration (IC50) is more than 1 µM.

Regarding `CN1CC(c2nnc([C@]34CN(c5ccc(C(F)(F)F)c6ncccc56)C[C@@]3(C(F)(F)F)C4)o2)C1` [Compound 4, 2-(1-methylazetidin-3-yl)-5-((1S,5R)-5-(trifluoromethyl)-3-(8-(trifluoromethyl)quinolin-5-yl)-3-azabicyclo[3.1.0]hexan-1-yl)-1,3,4-oxadiazole], the IC50 is more than 1 µM.

As to `CN1CCC(c2nnc([C@]34CN(c5ccc(C#N)c6ncccc56)C[C@@]3(C(F)(F)F)C4)n2C)CC1` [Compound 5, 5-((1S,5R)-1-(4-methyl-5-(1-methylpiperidin-4-yl)-4H-1,2,4-triazol-3-yl)-5-(trifluoromethyl)-3-azabicyclo[3.1.0]hexan-3-yl)quinoline-8-carbonitrile], the half-inhibitory concentration (IC50) is more than 1 µM.

In the case of `CN1CCC(Nc2nnc([C@]34CN(c5ccc(C#N)c6ncccc56)C[C@@]3(C(F)(F)F)C4)o2)CC1` [Compound 6, 5-((1S,5R)-1-(5-((1-methylpiperidin-4-yl)amino)-1,3,4-oxadiazol-2-yl)-5-(trifluoromethyl)-3-azabicyclo[3.1.0]hexan-3-yl)quinoline-8-carbonitrile], the IC50 was more than 1 µM.

For `N#Cc1ccc(N2C[C@]3(c4nnc(N)o4)C[C@]3(C(F)(F)F)C2)c2cccnc12` [Compound 7, 5-((1S,5R)-1-(5-amino-1,3,4-oxadiazol-2-yl)-5-(trifluoromethyl)-3-azabicyclo[3.1.0]hexan-3-yl)quinoline-8-carbonitrile], the half-maximal inhibitory concentration (IC50) was more than 10 µM.

With `CN1CCC(C)(c2nnc([C@]34CN(c5ccc(C#N)c6ncccc56)C[C@@]3(C(F)(F)F)C4)o2)CC1` [Compound 8, 5-((1S,5R)-1-(5-(1,4-dimethylpiperidin-4-yl)-1,3,4-oxadiazol-2-yl)-5-(trifluoromethyl)-3-azabicyclo[3.1.0]hexan-3-yl)quinoline-8-carbonitrile], the IC50 was more than 1 µM.

Regarding `CN1CCC(c2nnc([C@]34CN(c5ccc(C#N)c6ncccc56)C[C@@]3(C(F)(F)F)C4)[nH]2)CC1` [Compound 9, 5-((1S,5R)-1-(5-(1-methylpiperidin-4-yl)-4H-1,2,4-triazol-3-yl)-5-(trifluoromethyl)-3-azabicyclo[3.1.0]hexan-3-yl)quinoline-8-carbonitrile], the IC50 is more than 1 µM.

On to `CN1[C@@H]2CC[C@H]1C[C@H](c1nnc([C@]34CN(c5ccc(C#N)c6ncccc56)C[C@@]3(C(F)(F)F)C4)o1)C2` [Compound 11, 5-((1S,5R)-1-(5-((1R,3S,5S)-8-methyl-8-azabicyclo[3.2.1]octan-3-yl)-1,3,4-oxadiazol-2-yl)-5-(trifluoromethyl)-3-azabicyclo[3.1.0]hexan-3-yl)quinoline-8-carbonitrile], for which the half-maximal inhibitory concentration (IC50) is more than 1 µM.

Regarding `N#Cc1ccc(N2C[C@]3(c4nnc(C5CCOCC5)o4)C[C@]3(C(F)(F)F)C2)c2cccnc12` [Compound 12, 5-((1S,5R)-1-(5-(tetrahydro-2H-pyran-4-yl)-1,3,4-oxadiazol-2-yl)-5-(trifluoromethyl)-3-azabicyclo[3.1.0]hexan-3-yl)quinoline-8-carbonitrile], the IC50 is more than 10 µM.

With `CN1CC2(CCC(c3nnc([C@]45CN(c6ccc(C#N)c7ncccc67)C[C@@]4(C(F)(F)F)C5)o3)CC2)C1` [Compound 13, 5-((1S,5R)-1-(5-(2-methyl-2-azaspiro[3.5]nonan-7-yl)-1,3,4-oxadiazol-2-yl)-5-(trifluoromethyl)-3-azabicyclo[3.1.0]hexan-3-yl)quinoline-8-carbonitrile], the IC50 was more than 1 µM.

For the compound `CN1CC2CC1CC2c1nnc([C@]23CN(c4ccc(C#N)c5ncccc45)C[C@@]2(C(F)(F)F)C3)o1` (stereo partly drawn) [Compound 14, 5-((1S,5R)-1-(5-(2-methyl-2-azabicyclo[2.2.1]heptan-5-yl)-1,3,4-oxadiazol-2-yl)-5-(trifluoromethyl)-3-azabicyclo[3.1.0]hexan-3-yl)quinoline-8-carbonitrile], the IC50 is more than 1 µM.

With `CN1CCC(Oc2nnc([C@]34CN(c5ccc(C#N)c6ncccc56)C[C@@]3(C(F)(F)F)C4)o2)CC1` [Compound 15, 5-((1S,5R)-1-(5-((1-methylpiperidin-4-yl)oxy)-1,3,4-oxadiazol-2-yl)-5-(trifluoromethyl)-3-azabicyclo[3.1.0]hexan-3-yl)quinoline-8-carbonitrile], the half-inhibitory concentration (IC50) is more than 1 µM.

For the compound `N#Cc1ccc(N2C[C@]3(c4nnc(C5CCN(CC(N)=O)CC5)o4)C[C@]3(C(F)(F)F)C2)c2cccnc12` [Compound 17, 2-(4-(5-((1S,5R)-3-(8-cyanoquinolin-5-yl)-5-(trifluoromethyl)-3-azabicyclo[3.1.0]hexan-1-yl)-1,3,4-oxadiazol-2-yl)piperidin-1-yl)acetamide], the concentration for half-maximal inhibition (IC50) is more than 10 µM.

On to `N#Cc1ccc(N2C[C@]3(c4nnc(C5CC6(CNC6)C5)o4)C[C@]3(C(F)(F)F)C2)c2cccnc12` [Compound 18, 5-((1S,5R)-1-(5-(2-azaspiro[3.3]heptan-6-yl)-1,3,4-oxadiazol-2-yl)-5-(trifluoromethyl)-3-azabicyclo[3.1.0]hexan-3-yl)quinoline-8-carbonitrile], for which the half-maximal inhibitory concentration (IC50) is less than 1 µM.

`CN1CC2(CC(c3nnc([C@]45CN(c6ccc(C#N)c7ncccc67)C[C@@]4(C(F)(F)F)C5)o3)C2)C1` [Compound 19, 5-((1S,5R)-1-(5-(2-methyl-2-azaspiro[3.3]heptan-6-yl)-1,3,4-oxadiazol-2-yl)-5-(trifluoromethyl)-3-azabicyclo[3.1.0]hexan-3-yl)quinoline-8-carbonitrile]: the IC50 was more than 1 µM.

As to `N#Cc1ccc(N2C[C@]3(c4nnc([C@H]5CC[C@H](N)CC5)o4)C[C@]3(C(F)(F)F)C2)c2cccnc12` [Compound 20, 5-((1S,5R)-1-(5-((1R,4S)-4-aminocyclohexyl)-1,3,4-oxadiazol-2-yl)-5-(trifluoromethyl)-3-azabicyclo[3.1.0]hexan-3-yl)quinoline-8-carbonitrile], the half-maximal inhibitory concentration (IC50) was more than 1 µM.

The values are drawn from EP4806891A1 (Kangbaida (Sichuan) Biotechnology Co., Ltd., priority 2023, dated 2025).
